Test results as given in patent US20220265785A1, “COMPOSITION FOR PREVENTING OR TREATING URIC ACID-RELATED DISEASE” (GUANGZHOU CENTURY CLINICAL RESEARCH CO., LTD, priority 2019, published 2022).

Columns and labels:
[1] = test system: hyperuricemia model animals; assay: Effect on serum uric acid level of hyperuricemia model rats (potassium oxonate + uric acid); format: in vivo, SD rats; conditions: for Serum uric acid content, Day 0: Day 0, before modeling and before drug, 8 rats; for Serum uric acid content, Day 0 / Serum uric acid content, Day 12 / Serum uric acid content, Day 18: X ± SD; for Serum uric acid content, Day 12: Day 12, after modeling, before drug (dosing from D13)
From the text: (§1) Lysozyme granules, enteric lysozyme granules, and benzbromarone fine granules. Each test drug was moistened and uniformly mixed with 0.5% sodium carboxymethylcellulose for easy administration.
(§2) SD rats. The rats had free access to drinking water and food, and they were adaptively reared for one week before test.
(§3) Except for rats in the blank group, the other rats were modeled for 12 days, and the serum uric acid level of each rat was detected. Then the rats were evenly divided into groups according to the uric acid level of each rat, with 8 animals in each group.
(§4) Lysozyme groups and enteric lysozyme groups: High and low doses of the lysozyme granules and enteric lysozyme granules were respectively taken orally, and the dosages were 10 mg/kg and 30 mg/kg based on the active ingredient, once a day.
(§5) Benzbromarone group: The benzbromarone fine granules were taken orally at a dose of 30 mg/kg based on the active ingredient, once a day.
(§6) The test was carried out for a total of 18 days.
(§7) On day 1 of the test, except for the animals in the blank group, the animals in the other groups were orally given a modeling agent (1.5 g/kg potassium oxonate +0.3 g/kg uric acid, dissolved in 0.5% sodium carboxymethylcellulose) once to start modeling, and thereafter, the same amount of the modeling agent was administrated at the same time every day. 0.5 ml of blood was taken from the orbit before the start of the test (DO) and on day 12
(§8) (D12) of the test, respectively, and centrifuged, then the serum was taken and tested for serum uric acid level using a uric acid assay kit and a microplate reader; in addition, 0.5 g of fresh midsection rat feces were taken, diluted and uniformly mixed with four times volume of phosphate buffer, centrifuged, ultrasonically mixed until uniform, incubated at 100° C. for 40 minutes, cooled and then centrifuged, and the supernatant was taken and tested for fecal uric acid level using the uric acid assay kit and the microplate reader.
(§9) Thereafter, the rats were grouped according to the serum uric acid value of each rat. From day 13 (D13), each rat was given the test drug intragastrically every day, as well as the modeling agent every day. The interval between the administration of the test drug and the administration of the modeling agent was more than 1 hour. The drug administration was stopped after day 18 (D18) of the test, and the serum uric acid levels and fecal uric acid levels were determined according to the previous method.

[2] = test system: hyperuricemia model animals; assay: Effect on fecal uric acid level of hyperuricemia model rats (potassium oxonate + uric acid); format: in vivo, SD rats; conditions: for Fecal uric acid content, Day 0: Day 0, before modeling and before drug; for Fecal uric acid content, Day 0 / Fecal uric acid content, Day 12 / Fecal uric acid content, Day 18: X ± SD; for Fecal uric acid content, Day 12: Day 12, after modeling, before drug; for Fecal uric acid levels compared with the model control group: day 18
From the text: as §1, §2, §3, §4, §5, §6, §7, §8, §9

[3] = test system: patient with hyperuricemia accompanied by gout; assay: Lysozyme enteric tablets in patient with hyperuricemia accompanied by gout; format: in vivo, human; conditions: same patient before lysozyme; serum uric acid remained at 700 μmol/L or more
From the text: The administration of lysozyme enteric tablets (produced by Xiangbei Welman Pharmaceutical Co., Ltd.) by two patients with hyperuricemia is described below to specifically illustrate the present disclosure.
A person suffering from gout had obvious redness, swelling and pain in the ankles and toes, and difficulty in walking. […] The lysozyme enteric tablets were tried daily (once in the morning, once at noon and once in the evening, 2 g each time). One month later, they felt that the frequency of pain episodes decreased and the difficulty in walking was alleviated.

[4] = 30 mg/kg oral once a day D13-D18
[5] = 10 mg/kg oral once a day D13-D18

Molecule | Serum uric acid content, Day 0 ([1]; 30 mg/kg group) | Serum uric acid content, Day 12 ([1]; 30 mg/kg group) | Serum uric acid content, Day 18 [1, 4] | Fecal uric acid content, Day 0 ([2]; 30 mg/kg group) | Fecal uric acid content, Day 12 ([2]; 30 mg/kg group) | Fecal uric acid content, Day 18 [2, 4] | Fecal uric acid levels compared with the model control group [2] | Effects of past use to relieve pain and reduce uric acid [3] | Serum uric acid content, Day 0 ([1]; 10 mg/kg group) | Serum uric acid content, Day 12 ([1]; 10 mg/kg group) | Serum uric acid content, Day 18 [1, 5] | Serum uric acid levels compared with the model control group ([1]; day 18) | Fecal uric acid content, Day 0 ([2]; 10 mg/kg group) | Fecal uric acid content, Day 12 ([2]; 10 mg/kg group) | Fecal uric acid content, Day 18 [2, 5]
CCc1oc2ccccc2c1C(=O)c1cc(Br)c(O)c(Br)c1 [Benzbromarone, reference compound] | 41.02 ± 3.71 µmol/L | 117.14 ± 17.74 µmol/L | 153.45 ± 26.17 µmol/L | 1.12 ± 0.17 mmol/L | 1.25 ± 0.31 mmol/L | 1.34 ± 0.31 mmol/L | did not increase significantly |  |  |  |  |  |  |  | 
Oc1ncnc2[nH]ncc12 [allopurinol] |  |  |  |  |  |  |  | not good |  |  |  |  |  |  | 
CC(C)Cc1ccc(C(C)C(=O)O)cc1 (centres unmarked) [ibuprofen] |  |  |  |  |  |  |  | not good |  |  |  |  |  |  | 
Lysozyme: Homemade granules: lysozyme with a potency of more than 20000 U/mg mixed with the same amount of starch, granulated with water | 40.49 ± 3.33 µmol/L | 120.79 ± 17.64 µmol/L | 149.76 ± 20.12 µmol/L | 1.15 ± 0.16 mmol/L | 1.24 ± 0.20 mmol/L | 1.98 ± 0.20 mmol/L | significantly higher |  | 43.66 ± 4.16 µmol/L | 122.12 ± 10.27 µmol/L | 161.97 ± 22.11 µmol/L | significantly lower | 0.98 ± 0.13 mmol/L | 1.26 ± 0.24 mmol/L | 1.84 ± 0.20 mmol/L
